# Measurements from patent publication US20230123334A1, “AMINO LIPID COMPOUND, PREPARATION METHOD THEREFOR, AND APPLICATION THEREOF” (SHENZHEN SHENXIN BIOTECHNOLOGY CO., LTD., priority 2020, published 2023).
# Test system: HEK293 cells
# Test: Preliminary screening as mRNA vectors, EGFP mRNA transfection of HEK293 cells
# Assay type: cell-based
# Conditions: EGFP mRNA 50 ng per well, 96-well plates; percentage of GFP fluorescent cells relative to total number of cells (Hoechst)
# How it was run: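 Each well of HEK293 cells received 50 ng of EGFP mRNA. Efficiency was expressed as percent GFP-expressing cells over Hoechst-defined total cell number.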
row,Structure (SMILES),Absolute mRNA transfection efficiency in HEK293 cells
1,CCCCCCCCCNc1nc(NCCN2CCOCC2)nc(SCCCCCCCC)n1 [Compound D2S8N9],8.3%
2,CCCCCCCSc1nc(NCCN2CCOCC2)nc(SCCCCCCC)n1 [Compound D2S7S7],4.9%
3,CCCCCCCCCCCSc1nc(NCCN2CCN(C)CC2)nc(SCCCCCCCC)n1 [Compound D5S8S11],87.0%
4,CCCCCCCCCCCNc1nc(NCCN2CCN(C)CC2)nc(SCCCCCCCC)n1 [Compound D5S8N11],30.1%
5,CCCCCCCCCCCCNc1nc(NCCN2CCOCC2)nc(SCCCCCCCCC)n1 [Compound D2S9N12],15.2%
6,CCCCCCCCCCCCN(CCCCCCCCCCCC)c1nc(NCCN2CCOCC2)nc(SCCCCCCC)n1 [D2S7^2N12],0.4%
7,CCCCCCCCCCCCNc1nc(NCCN2CCOCC2)nc(SCCCCCC)n1 [Compound D2S6N12],0.8%
8,CCCCCCCCCCCCSc1nc(NCCCCCCCCCCC)nc(NCCN2CCCC2)n1 [Compound D3S12N11],21.2%
9,CCCCCCCCCCCCCCCSc1nc(NCCN(CC)CC)nc(SCCCCCCC)n1 [Compound D7S7S15],5.4%
10,CCCCCCCCCCCCCCCNc1nc(NCCCN2CCOCC2)nc(SCCCCCCCCC)n1 [Compound D8S9N15],7.2%
11,CCCCCCCCCCCCCCSc1nc(NCCCCCCCCCCCCC)nc(NCCCN2CCOCC2)n1 [Compound D8S14N13],1.4%
12,CCCCCCCCNc1nc(NCC2CCN(C)CC2)nc(SCCCCCCC)n1 [Compound D10S7N8],1.3%
13,CCCCCCCCCCCCCCCCSc1nc(NCCCCCCCCCCCC)nc(NCCCN(C)C)n1 [Compound D6S16N12],2.0%
14,CCCCCCCSc1nc(NCCN2CCCC2)nc(SCCCCCCC)n1 [Compound D3S7S7],12.2%
15,CCCCCCCCSc1nc(NCCCCCC)nc(NCCCN2CCN(C)CC2)n1 [Compound D9S8N6],0.7%
16,CCCCCCCCCCCCCCCCSc1nc(NCCCCCCCCCCC)nc(NCCN2CCCC2)n1 [Compound D3S16N11],73.8%
17,CCCCCCCNc1nc(NCCN2CCCC2)nc(SCCCCCCC)n1 [Compound D3S7N7],6.6%
18,CCCCCCCCCCCCCCCNc1nc(NCCN2CCCC2)nc(SCCCCCCCCCCC)n1 [Compound D3S11N15],31.3%
19,CCCCCCCCSc1nc(NCCN2CCCCC2)nc(SCCCCCC)n1 [Compound D4S6S8],0.5%
20,CCCCCCCCCCCCCCCCCCSc1nc(NCCCCCC)nc(NCCN2CCN(C)CC2)n1 [Compound D5S18N6],73.2%
21,CCCCCCSc1nc(NCCCN2CCOCC2)nc(SCCCCCC)n1 [Compound D8S6S6],0.0%
22,CCCCCCCCCCCCCNc1nc(NCCN(CC)CC)nc(SCCCCCCCCC)n1 [Compound D7S9N13],33.4%
23,CCCCCCCCCCCCCCCSc1nc(NCCCCCCCCCCCCC)nc(NCCN2CCN(C)CC2)n1 [Compound D5S15N13],1.5%

row,Structure (SMILES),Absolute mRNA transfection efficiency in HEK293 cells
1,CCCCCCCNc1nc(NCCN2CCCC2)nc(SCCCCCC)n1 [Compound D3S6N7],0.2%
2,CCCCCCCCCCCCN(CCCCCCCCCCCC)c1nc(NCCCN2CCOCC2)nc(SCCCCCCCC)n1 [D8S8^2N12],0.1%
3,CCCCCCCCCCSc1nc(NCCCCCC)nc(NCC2CCN(C)CC2)n1 [Compound D10S10N6],0.5%
4,CCCCCCCCCCCCCCCNc1nc(NCCN2CCCC2)nc(SCCCCCCCCC)n1 [Compound D3S9N15],67.9%
5,CCCCCCCCCCCCCCCCCCNc1nc(NCCN(CC)CC)nc(SCCCCCCCCCCCCCC)n1 [Compound D7S14N18],0.4%
6,CCCCCCCCCCCCN(CCCCCCCCCCCC)c1nc(NCCN(C)C)nc(SCCCCCCC)n1 [D1S7^2N12],0.7%
7,CCCCCCCCCCCCCCCCCCNc1nc(NCCN2CCCC2)nc(SCCCCCCCCCCC)n1 [Compound D3S11N18],40.6%
8,CCCCCCCCCCCCCCCCSc1nc(NCCCCCCC)nc(NCCN(CC)CC)n1 [Compound D7S16N7],7.8%
9,CCCCCCCCCNc1nc(NCCN2CCCC2)nc(SCCCCCCCC)n1 [Compound D3S8N9],3.2%
10,CCCCCCCCCCCCCCCNc1nc(NCC2CCN(C)CC2)nc(SCCCCCCCCC)n1 [Compound D10S9N15],17.5%
11,CCCCCCCCNc1nc(NCC2CCN(C)CC2)nc(SCCCCCCCC)n1 [Compound D10S8N8],1.2%
12,CCCCCCCCCCCSc1nc(NCCN(C)C)nc(SCCCCCC)n1 [Compound D1S6S11],0.4%
13,CCCCCCCCCCCCSc1nc(NCCCCCCC)nc(NCC2CCN(C)CC2)n1 [Compound D10S12N7],1.7%
14,CCCCCCCCNc1nc(NCCCN2CCN(C)CC2)nc(SCCCCCCCC)n1 [Compound D9S8N8],4.5%
15,CCCCCCCCCCCCCCCCCCSc1nc(NCCCCCCCCCCCCC)nc(NCCCN2CCN(C)CC2)n1 [Compound D9S18N13],0.0%
16,CCCCCCCCCCCCCCCNc1nc(NCCN2CCCC2)nc(SCCCCCCCCCCCC)n1 [Compound D3S12N15],1.5%
17,CCCCCCCCCCCCCCSc1nc(NCCCCCCC)nc(NCCCN2CCN(C)CC2)n1 [Compound D9S14N7],50.1%
18,CCCCCCCCCCCCCCSc1nc(NCCCN2CCN(C)CC2)nc(SCCCCCCC)n1 [Compound D9S7S14],34.5%
19,CCCCCCCCCCCCCCCCSc1nc(NCCCN2CCN(C)CC2)nc(SCCCCCC)n1 [Compound D9S6S16],38.2%
20,CCCCCCCCCCCCCCSc1nc(NCCCCCCCCCCCC)nc(NCCN2CCOCC2)n1 [Compound D2S14N12],2.1%
21,CCCCCCCCCCCCCCCSc1nc(NCCCCCCC)nc(NCCN(C)C)n1 [Compound D1S15N7],66.1%
22,CCCCCCCCCCCCCCCCCCSc1nc(NCCCCCCCCCCCCC)nc(NCCCN2CCOCC2)n1 [Compound D8S18N13],0.0%
23,CCCCCCCCCCSc1nc(NCCCN(C)C)nc(SCCCCCCCC)n1 [Compound D6S8S10],70.2%

row,Structure (SMILES),Absolute mRNA transfection efficiency in HEK293 cells
1,CCCCCCCCCCCCCCCCCCNc1nc(NCCN2CCOCC2)nc(SCCCCCCC)n1 [Compound D2S7N18],5.2%
2,CCCCCCCCCCCCCCCCSc1nc(NCCCCCCCCCCCCC)nc(NCCN2CCCCC2)n1 [Compound D4S16N13],0.1%
3,CCCCCCCCCCCNc1nc(NCC2CCN(C)CC2)nc(SCCCCCC)n1 [Compound D10S6N11],4.0%
4,CCCCCCCCCCCCCCCCCCNc1nc(NCCCN2CCN(C)CC2)nc(SCCCCCCCCCC)n1 [Compound D9S10N18],9.0%
5,CCCCCCCCCCCCCCCCNc1nc(NCCCN(C)C)nc(SCCCCCCCC)n1 [Compound D6S8N16],67.0%
6,CCCCCCCCCCCCCNc1nc(NCCN2CCN(C)CC2)nc(SCCCCCCCCCCCC)n1 [Compound D5S12N13],0.4%
7,CCCCCCCCCCCCCCSc1nc(NCCCN2CCOCC2)nc(SCCCCCC)n1 [Compound D8S6S14],6.8%
8,CCCCCCCCCCCCCCCCSc1nc(NCCCCCCCCCCCCC)nc(NCCCN(C)C)n1 [Compound D6S16N13],0.5%
9,CCCCCCCCCCCCCCSc1nc(NCCCCCCCC)nc(NCCCN2CCN(C)CC2)n1 [Compound D9S14N8],24.8%
10,CCCCCCCCCCCCSc1nc(NCCCCCCCCC)nc(NCCN2CCCC2)n1 [Compound D3S12N9],39.9%
11,CCCCCCCCCCCCCCCSc1nc(NCCCCCCCCCCCCC)nc(NCCN2CCCCC2)n1 [Compound D4S15N13],0.8%
12,CCCCCCCCCCCCCCCCNc1nc(NCCN(C)C)nc(SCCCCCCCCCCCCCCCC)n1 [Compound D1S16N16],0.9%
13,CCCCCCCCCCCCCCCCNc1nc(NCCN(C)C)nc(SCCCCCCCCCCCCCCC)n1 [Compound D1S15N16],3.2%
14,CCCCCCNc1nc(NCCN2CCOCC2)nc(SCCCCCC)n1 [Compound D2S6N6],0.4%
15,CCCCCCCCCCCCCCSc1nc(NCCCN(C)C)nc(SCCCCCC)n1 [Compound D6S6S14],62.8%
16,CCCCCCCCCCCCCCCCCCSc1nc(NCCN2CCN(C)CC2)nc(SCCCCCC)n1 [Compound D5S6S18],55.1%
17,CCCCCCCCCCCCSc1nc(NCCCN2CCOCC2)nc(SCCCCCC)n1 [Compound D8S6S12],11.1%
18,CCCCCCCCCCCCCCCSc1nc(NCCCCCCCC)nc(NCCCN(C)C)n1 [Compound D6S15N8],6.9%
19,CCCCCCCCCCCCCCCCCCSc1nc(NCCCCCC)nc(NCCN(C)C)n1 [Compound D1S18N6],42.6%
20,CCCCCCCCCCCCSc1nc(NCCN2CCN(C)CC2)nc(SCCCCCC)n1 [Compound D5S6S12],14.0%
21,CCCCCCCCCCCCCCCNc1nc(NCCN(CC)CC)nc(SCCCCCCCCCCCC)n1 [Compound D7S12N15],1.3%
